Assays:
Bifidobacterium = test: i-screen in vitro fermentation of fecal microbiota pool: Bifidobacterium growth; type: cell-based; details: second i-screen, relative to untreated control (1.0)
Description: (§1) Samples containing 8 mg/mL (0.8% w/v) of SPS or SOS were diluted by a factor of two to provide samples containing 4 mg/mL (0.4% w/v) of SPS or SOS. The effect of Sample Nos. 1-12 at a concentration of 4 mg/mL on a panel of over twenty-five gut microbiota was assessed after 24 h of fermentation using an in vitro fermentation screening platform (“i-screen”), as described by Fehlbaum (2018). Specifically, a standard fecal microbiota pool derived from 5-6 healthy adults (health based on exclusion criteria) was used that was pre-cultured overnight from a frozen stock. […] A number of sphingan samples and comparative samples—plant extracts (e.g., pectins, pectin oligosaccharides, and carrageenans) and biogums (e.g., xanthan and xanthan oligosaccharides)) were analyzed at a concentration of about 4 mg/mL, which corresponds to a dose of about 4 g/day. […]
(§2) Shifts in microbiota composition were determined by next generation sequencing, which recognizes bacteria at the genus level and in many cases (but not all) at the species level. To have a uniform distribution of samples in the sequencing pool total bacterial load was established by a quantitative Polymerase Chain Reaction (“PCR”) using a universal primer-probe set. […] Next, amplicons were gel-purified, quantified and pooled. […]
(§3) The standard controls were carried out in triplicate. […] The effect was determined relative to an untreated control. […]

Blautia = test: i-screen in vitro fermentation of fecal microbiota pool: Blautia growth; type: cell-based; details: second i-screen, pool H1, relative to untreated control (1.0)
Description: as §1, §2, §3

Faecalibacterium = test: i-screen in vitro fermentation of fecal microbiota pool: Faecalibacterium growth; type: cell-based; details: second i-screen, pool H1, relative to untreated control (1.0)
Description: as §1, §2, §3

Parabacteroides = test: i-screen in vitro fermentation of fecal microbiota pool: Parabacteroides growth; type: cell-based; details: second i-screen, pool H1, relative to untreated control (1.0)
Description: as §1, §2, §3

[1] = test system: Lachnospiraceae unclassified; test: i-screen in vitro fermentation: Lachnospiraceae unclassified growth; type: cell-based; details: second i-screen, relative to untreated control (1.0)
Description: as §1, §2, §3

Clostridium XlVa = test: i-screen in vitro fermentation: Clostridium XlVa growth; type: cell-based; details: second i-screen, relative to untreated control (1.0)
Description: The effect of Sample Nos. 1-12 at a concentration of 4 mg/mL on a panel of over twenty-five gut microbiota was assessed after 24 h of fermentation using an in vitro fermentation screening platform (“i-screen”), as described by Fehlbaum (2018). Specifically, a standard fecal microbiota pool derived from 5-6 healthy adults (health based on exclusion criteria) was used that was pre-cultured overnight from a frozen stock. This was followed by dilution in microtiter plates in which the samples were added and subsequently anaerobically incubated for 24 h at 37° C. After incubation, culture samples were harvested and processed for further analysis. […] A number of sphingan samples and comparative samples—plant extracts (e.g., pectins, pectin oligosaccharides, and carrageenans) and biogums (e.g., xanthan and xanthan oligosaccharides)) were analyzed at a concentration of about 4 mg/mL, which corresponds to a dose of about 4 g/day.

Coprococcus = test: i-screen in vitro fermentation: Coprococcus growth; type: cell-based; details: second i-screen, relative to untreated control (1.0)
Description: as §1, §2, §3

Phascolarctobacterium = test: i-screen in vitro fermentation: Phascolarctobacterium growth; type: cell-based; details: second i-screen, relative to untreated control (1.0)
Description: as §1, §2, §3

Butyricicoccus = test: i-screen in vitro fermentation: Butyricicoccus growth; type: cell-based; details: second i-screen, relative to untreated control (1.0)
Description: as §1, §2, §3

NF-κB = test: Caco-2/THP1-Blue co-culture: NF-κB activity after LPS; type: cell-based, human; details: control tests, versus LPS+
Description: (§4) Samples collected from the SHIME experiment described above were used to evaluate in vitro the effect of the fermented products on intestinal epithelial barrier function and immune markers. These include samples from the proximal and distal colon reactors of three different donors, collected at the end of the control and treatment periods.
THP1-Blue™ (InvivoGen) cells were maintained in Roswell Park Memorial Institute (RPMI) 1640 medium containing glucose and glutamine, supplemented with HEPES, sodium pyruvate and 10% (v/v) H1-FBS. THP1-Blue™ are THP1 human monocytes stably transfected with a reporter construct expressing a secreted alkaline phosphatase (SEAP) gene under the control of a promoter inducible by the transcription factor nuclear factor kappa B (NF-κB). Upon TLR activation (e.g., by lipopolysaccharide (LPS); isolated from Gram-negative bacteria), NF-κB becomes activated and induces the expression and secretion of SEAP. SEAP activity can then be measured in the supernatants by using the QUANTI-Blue reagent (InvivoGen). […]
Briefly, the apical compartment (containing the Caco-2 cells) was filled with sterile-filtered (0.22 μm) colonic SHIME suspensions or with different concentrations of live bacteria. […] Cells were treated for 24 h, after which the TEER was measured (=24 h time point). […]

IL-1β = test: Caco-2/THP1-Blue co-culture: IL-1β secretion after LPS; type: cell-based, human; details: control tests, versus LPS+
Description: as §4
(§5) Briefly, the apical compartment (containing the Caco-2 cells) was filled with sterile-filtered (0.22 μm) colonic SHIME suspensions or with different concentrations of live bacteria. Cells were also treated apically with sodium butyrate (NaB) (Sigma-Aldrich) as positive control. The basolateral compartment (containing the THP1-Blue™ cells) was filled with Caco-2 complete medium. Cells were also exposed to Caco-2 complete medium in both chambers as control. Cells were treated for 24 h, after which the TEER was measured (=24 h time point). After subtracting the TEER of the empty insert, all 24 h values were normalized to its own 0 h value (to account for the differences in initial TEER of the different inserts) and are presented as percentage of initial value. Then, the basolateral supernatant was discarded, and cells were stimulated at the basolateral side with Caco-2 complete medium containing ultrapure LPS (Escherichia coli K12, InvivoGen). […]

[2] = test system: Caco-2/THP1-Blue™ co-cultures; test: Caco-2/THP1-Blue co-culture: transepithelial electrical resistance (TEER); type: cell-based, human; details: control tests, apical treatment 24 h, versus complete medium
Description: To mimic the interface between host and gut microbiome, several in vitro models have been developed in the past years which include the use of intestinal epithelial-like cells and immune cells of human origin. The model used herein was a co-culture model of intestinal epithelial-like cells (Caco-2 cells) and human monocytes/macrophages (THP1 cells). (See FIG. 14; see also Possemiers (2013) Satsu (2006).) Caco-2, when seeded on suitable supports, spontaneously differentiate into mature enterocyte-like cells, characterized by polarization, presence of villi, formation of domes, presence of tight junctions and vectorial transport and expression of apical brush-border enzymes (reviewed by Sambuy (2005)). THP1 monocytes, isolated from a human patient with acute leukemia, differentiate into macrophage-like cells upon phorbol 12-myristate 13-acetate (PMA) treatment. […] The ‘tightness’ of these junctions can be measured as transepithelial electrical resistance (TEER), with a high TEER corresponding to a tighter barrier. Upon loss of barrier function, the paracellular transport (in-between cells) of fluids increases, which can be measured as a reduction of the TEER. […] This is possibly due to cytokine-mediated disruption of tight junctions and can be measured as a decrease in TEER. […]

IL-6 = test: Caco-2/THP1-Blue co-culture: IL-6 secretion after LPS; type: cell-based, human; details: control tests, versus LPS+
Description: as §4, §5

IL-10 = test: Caco-2/THP1-Blue co-culture: IL-10 secretion after LPS; type: cell-based, human; details: control tests, versus LPS+
Description: as §4, §5

TNF-α = test: Caco-2/THP1-Blue co-culture: TNF-α secretion after LPS; type: cell-based, human; details: control tests, versus LPS+
Description: as §4, §5

IL-8 = test: Caco-2/THP1-Blue co-culture: IL-8 secretion after LPS; type: cell-based, human; details: control tests, versus LPS+
Description: as §4, §5

CXCL10 = test: Caco-2/THP1-Blue co-culture: CXCL10 secretion after LPS; type: cell-based, human; details: control tests, versus LPS+
Description: as §4, §5

MCP-1 = test: Caco-2/THP1-Blue co-culture: MCP-1 secretion after LPS; type: cell-based, human; details: control tests, versus LPS+
Description: as §4, §5

Row | SMILES | Bifid. growth (Bifidobacterium) | Blaut. growth (Blautia) | Faecal. growth (Faecalibacterium) | Para. growth (Parabacteroides) | Lachn. U. growth [1] | ClX1Va growth (Clostridium XlVa) | Copro. growth (Coprococcus) | Phasc. growth (Phascolarctobacterium) | Butyr. growth (Butyricicoccus) | LPS-induced NF-κB transcriptional activity (NF-κB) | LPS-induced IL-1β expression (IL-1β) | TEER of the Caco-2 monolayer [2] | LPS-induced IL-6 secretion (IL-6) | LPS-induced IL-10 secretion (IL-10) | LPS-induced TNF-α (TNF-α) | LPS-induced IL-8 (IL-8) | LPS-induced CXCL10 (CXCL10) | LPS-induced MCP-1 (MCP-1)
1 | CC1(C)S[C@@H]2[C@H](NC(=O)[C@H](N)c3ccc(O)cc3)C(=O)N2[C@H]1C(=O)O [CS20, Amoxicillin] | 0.24 | 0.23 | 0.37 | 12.10 | 0.04 | 0.03 | 0.04 | 0.08 | 0.00 |  |  |  |  |  |  |  |  | 
2 | C[C@]12CCC(=O)C=C1CC[C@@H]1[C@@H]2[C@@H](O)C[C@@]2(C)[C@H]1CC[C@]2(O)C(=O)CO [HC, hydrocortisone] |  |  |  |  |  |  |  |  |  | inhibiting | did not reduce |  |  |  |  |  |  | 
3 | CCCC(=O)[O-].[Na+] [NaB, sodium butyrate] |  |  |  |  |  |  |  |  |  | increased | did not reduce | maintain the TEER | selectively increased | selectively increased | selectively inhibited | selectively inhibited | selectively inhibited | selectively inhibited
